{"source": "paper PMC11878095", "about": "“Interspecies signaling modulates the biosynthesis of antimicrobial secondary metabolites related to biological control activities of Pseudomonas fluorescens 2P24” (Microbiology Spectrum, 2025)", "molecular_target": "T1, PhlH (2P24_PhlH) (Pseudomonas fluorescens, UniProt Q4JIX5)", "T1 construct": "purified recombinant His6-tagged PhlH", "T1 sequence (Q4JIX5 entry or part of it)": "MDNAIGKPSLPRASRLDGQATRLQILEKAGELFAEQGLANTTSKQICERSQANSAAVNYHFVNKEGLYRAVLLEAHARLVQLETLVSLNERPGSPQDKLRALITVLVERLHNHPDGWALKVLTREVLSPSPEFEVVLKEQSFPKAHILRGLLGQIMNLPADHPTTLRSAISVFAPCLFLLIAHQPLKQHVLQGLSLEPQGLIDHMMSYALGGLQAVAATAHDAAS", "experiment": "ITC ([…] °C, one-site model); EMSA shows PLT releases PhlH from phlG promoter DNA", "format": "binding"}
{"compound": "O=C(c1cc(Cl)c(Cl)[nH]1)c1c(O)cccc1O", "note": "[PLT, pyoluteorin]", "values": [{"measurement": "Kd", "result": 1000, "unit": "nM"}]}
